The source of these data is patent publication US5696151A, “Compounds useful for the inhibition of the replication of HIV-1 and HIV-1 mutants” (priority 1995, dated 1997).

In brackets after ≈: the same amount, converted by molar mass.

Common to all, as to assay type: cell-based
One series in a line: in vitro. Conditions: human, cem cells, CC50 (50% cytostatic concentration), Table 2B; CEM cell proliferation; averages of 2 to 3 independent experiments. The procedure, abridged: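 In CEM cells, the cytostatic value is the compound concentration giving 50% inhibition of cell proliferation. Parallel work used HIV-1(IIIB) and culture-selected resistant strains Lys-138, 181-Cys, 188-His and 188-Leu.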

Another series relates to HIV-1/103-Asn. Put plainly: Inhibition of HIV-1 induced syncytium formation in CEM cells, RT mutant 103-Asn. Conditions: Human immunodeficiency virus 1, CCRF-CEM, 96 h, Table 2B, day 4, averages of 2 to 3 independent experiments, read-out: Antiviral Activity of Comparative Compounds EC50, 103-Asn. An excerpt:
(§1) CEM cells were obtained from the American Tissue Cell Culture Collection (Rockville, Md.). HIV-1(IIIB) was originally obtained from the culture supernatant of persistently HIV-1-infected H9 cells and was provided by R. C. Gallo and M. Popovic (National Cancer Institute, National Institutes of Health, Bethesda, Md.). […] 67: 5353-5359 (1993); HIV-1/Lys-138 ("Lys-138") was selected for resistance against TSAO-m^3T as described in Balzarini et al, Virology 192: 246-253 (1993) and Balzarini et al, Proc. Nat. Acad. Sci. USA 90: 6952-6956 (1993); HIV-1/181-Cys ("181-Cys") was selected for resistance against pyridinone L-697,661 as described in Balzarini et al, Virology 192: 246-253 (1993); and HIV-1/188-His ("188-His") was selected for resistance against HEPT as described in Balzarini et al, Mol. Pharmocol. 44: 694-701 (1993). 188-His was then further converted to HIV-1/188-Leu "188-Leu") upon further passage in cell culture in the absence of the HEPT.
(§2) CEM cells were suspended at ≈300,000 cells per ml of culture medium and infected with approximately 100 CCID50 (CCID50 being the 50% cell culture infective dose) of HIV-1(IIIB) or one of the HIV-1 RT mutant strains described above. Then 100 μl of the infected cell suspensions was added to 200 μl microtiter plate wells containing 100 μl of appropriate serial (5-fold) dilutions of the test compounds. The inhibitory effect of the test compounds on HIV-1 induced syncytium formation in CEM cells was examined microscopically on day 4 post infection.

For another series, the system named is HIV-1/181-Cys. Put plainly: Inhibition of HIV-1 induced syncytium formation in CEM cells, RT mutant 181-Cys. Conditions: Human immunodeficiency virus 1, CCRF-CEM, 96 h, Table 2B, day 4, averages of 2 to 3 independent experiments, read-out: Antiviral Activity of Comparative Compounds EC50, 181-Cys. The method, boiled down:
(§3)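 CEM cells (≈300,000/ml) infected with about 100 CCID50 of HIV-1(IIIB) or RT mutant strains, then added to 5-fold serial dilutions of test compounds. Inhibition of virus-induced syncytium formation scored microscopically on day 4 post infection.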

The test system of another series is HIV-1(IIIB). Put plainly: Inhibition of HIV-1 induced syncytium formation in CEM cells, wild type. Conditions: Table 2B, WT = HIV-1(IIIB), day 4, averages of 2 to 3 independent experiments; for EC50: Human immunodeficiency virus 1, IIIB, CCRF-CEM, 96 h, read-out: Antiviral Activity of Comparative Compounds EC50, WT. The method, boiled down:
as §3

For another series, the system named is HIV-1/Lys-138. Nature of the series: Inhibition of HIV-1 induced syncytium formation in CEM cells, RT mutant 138-Lys. Conditions: Human immunodeficiency virus 1, CCRF-CEM, 96 h, Table 2B, day 4, averages of 2 to 3 independent experiments, read-out: Antiviral Activity of Comparative Compounds EC50, 138-Lys. The method, boiled down: as §3
Another series has as its system HIV-1/106-Ala. Nature of the series: Inhibition of HIV-1 induced syncytium formation in CEM cells, RT mutant 106-Ala. Conditions: Table 2B, day 4, averages of 2 to 3 independent experiments; for EC50: Human immunodeficiency virus 1, CCRF-CEM, 96 h, read-out: Antiviral Activity of Comparative Compounds EC50, 106-Ala. The method, boiled down:
as §3

The next series deals with HIV-1/100-Ile. Put plainly: Inhibition of HIV-1 induced syncytium formation in CEM cells, RT mutant 100-Ile. Conditions: Human immunodeficiency virus 1, CCRF-CEM, 96 h, Table 2B, day 4, averages of 2 to 3 independent experiments, read-out: Antiviral Activity of Comparative Compounds EC50, 100-Ile. The method, boiled down: as §3
Another series relates to HIV-1/188-Leu. Put plainly: Inhibition of HIV-1 induced syncytium formation in CEM cells, RT mutant 188-Leu. Conditions: Human immunodeficiency virus 1, CCRF-CEM, 96 h, Table 2B, day 4, averages of 2 to 3 independent experiments, read-out: Antiviral Activity of Comparative Compounds EC50, 188-Leu.
Description: as §1, §2

By CC50 is commonly meant the concentration giving 50% cytotoxicity. A word on the EC50: it is the concentration at which the effect is half-maximal. In turn, `Cc1sccc1C(=S)Nc1ccc(Cl)c(OCCC(C)C)c1` [Compound 12] displayed a CC50 in “in vitro” greater than 100 µg/mL. Also, the EC50 with HIV-1/103-Asn amounted to 0.035 µg/mL (≈ 0.0989 µM); in the series on HIV-1/181-Cys it was 0.07 µg/mL (≈ 0.198 µM); with HIV-1(IIIB), 0.007 µg/mL (≈ 0.0198 µM); in the series on HIV-1/Lys-138, 0.035 µg/mL (≈ 0.0989 µM); in the series on HIV-1/106-Ala, 0.08 µg/mL (≈ 0.226 µM); in the series with HIV-1/100-Ile, 0.035 µg/mL (≈ 0.0989 µM). Further, the concentration for a half-maximal effect (EC50) with HIV-1/188-Leu is greater than 2 µg/mL.
`Cc1sccc1C(=S)Nc1ccc(Cl)c(OCC(C)(C)C)c1` [Compound 29] had a CC50 in the series “in vitro” of 6.2 µg/mL (≈ 17.5 µM). The EC50 with HIV-1/103-Asn stood at 0.43 µg/mL (≈ 1.21 µM); in the series on HIV-1/181-Cys, 0.55 µg/mL (≈ 1.55 µM); in the series on HIV-1(IIIB), 0.14 µg/mL (≈ 0.396 µM); in the series with HIV-1/Lys-138, 0.05 µg/mL (≈ 0.141 µM); with HIV-1/106-Ala, 0.5 µg/mL (≈ 1.41 µM); in the series on HIV-1/100-Ile, 0.5 µg/mL (≈ 1.41 µM). For the same compound, the EC50 in the series with HIV-1/188-Leu was greater than 2 µg/mL.
As for `Cc1occc1C(=S)Nc1ccc(Cl)c(OC2CCCCC2)c1` [Compound 26], the midpoint of cytotoxicity in “in vitro”, the CC50, lay at 5.3 µg/mL (≈ 15.1 µM). Moreover, the concentration for a half-maximal effect (EC50) was 0.33 µg/mL (≈ 0.943 µM) in the series with HIV-1/103-Asn; no less than 2 µg/mL in the series on HIV-1/181-Cys; 0.033 µg/mL (≈ 0.0943 µM) in the series on HIV-1(IIIB); 0.5 µg/mL (≈ 1.43 µM) in the series on HIV-1/Lys-138; 0.09 µg/mL (≈ 0.257 µM) with HIV-1/106-Ala; 0.33 µg/mL (≈ 0.943 µM) in the series with HIV-1/100-Ile. The EC50 in the series on HIV-1/188-Leu was greater than 2 µg/mL.
`Cc1occc1C(=S)Nc1ccc(Cl)c(C=NOC(C)(C)C)c1` [Compound 3] returned a CC50 in the series “in vitro” of 5.8 µg/mL (≈ 16.5 µM). Also, the EC50 with HIV-1/103-Asn is 0.23 µg/mL (≈ 0.656 µM); with HIV-1/181-Cys it was 0.08 µg/mL (≈ 0.228 µM); in the series on HIV-1/Lys-138 it was 0.045 µg/mL (≈ 0.128 µM); in the series with HIV-1/100-Ile, 0.057 µg/mL (≈ 0.162 µM); with HIV-1/188-Leu, 0.91 µg/mL (≈ 2.59 µM). Also, the “Antiviral Activity of Comparative Compounds EC50, WT” value in the series on HIV-1(IIIB) came out at 0.0065 µg/mL. Further, the “Antiviral Activity of Comparative Compounds EC50, 106-Ala” value with HIV-1/106-Ala was found to be 0.03 µg/mL.
In turn, `Cn1ccc(C(=S)Nc2ccc(Cl)c(C=NOC(C)(C)C)c2)c1` [Compound 11] registered a CC50 in the series “in vitro” of 13 µg/mL (≈ 37.2 µM). In addition, the EC50 was 0.17 µg/mL (≈ 0.486 µM) in the series with HIV-1/103-Asn; 0.045 µg/mL (≈ 0.129 µM) in the series with HIV-1/181-Cys; 0.029 µg/mL (≈ 0.0829 µM) with HIV-1(IIIB); 0.13 µg/mL (≈ 0.372 µM) in the series with HIV-1/Lys-138; 0.1 µg/mL (≈ 0.286 µM) in the series with HIV-1/106-Ala; 0.13 µg/mL (≈ 0.372 µM) in the series on HIV-1/100-Ile. Further, the concentration giving a half-maximal response (EC50) in the series with HIV-1/188-Leu is greater than 2 µg/mL.
`Cc1sccc1C(=O)Nc1ccc(Cl)c(OCCC(C)C)c1` [Compound 33] gave a CC50 in the series “in vitro” of 7 µg/mL (≈ 20.7 µM). In addition, the EC50 in the series with HIV-1/103-Asn was found to be 1 µg/mL (≈ 2.96 µM); in the series with HIV-1/181-Cys it was 1.07 µg/mL (≈ 3.17 µM); in the series on HIV-1(IIIB), 0.063 µg/mL (≈ 0.186 µM); with HIV-1/Lys-138, 0.62 µg/mL (≈ 1.84 µM); in the series with HIV-1/106-Ala it was 0.65 µg/mL (≈ 1.92 µM); in the series with HIV-1/100-Ile, 0.95 µg/mL (≈ 2.81 µM). In addition, in the series with HIV-1/188-Leu, the EC50 was greater than 2 µg/mL.
`CC=CCSc1cc(NC(=S)c2ccoc2C)ccc1Cl` [Compound 6]: the CC50 in “in vitro” amounted to 4.7 µg/mL (≈ 13.9 µM). Further, the concentration giving a half-maximal response (EC50) in the series with HIV-1/103-Asn was determined as 0.03 µg/mL (≈ 0.0888 µM); in the series with HIV-1/181-Cys, 0.045 µg/mL (≈ 0.133 µM); with HIV-1(IIIB), 0.0041 µg/mL (≈ 0.0121 µM); in the series on HIV-1/Lys-138, 0.03 µg/mL (≈ 0.0888 µM); with HIV-1/106-Ala, 0.018 µg/mL (≈ 0.0533 µM); with HIV-1/100-Ile it was 0.037 µg/mL (≈ 0.11 µM). In addition, the EC50 with HIV-1/188-Leu amounted to 1 µg/mL (≈ 2.96 µM).
Compound `CCC1=C(C(=O)Nc2ccc(Cl)c(C(=O)OC3CCCCC3)c2)SCCO1` [Compound 13] had a CC50 in the series “in vitro” of 11.4 µg/mL (≈ 27.8 µM). Besides, the EC50 in the series on HIV-1/103-Asn was determined as 0.38 µg/mL (≈ 0.927 µM); with HIV-1/181-Cys, 0.07 µg/mL (≈ 0.171 µM); in the series on HIV-1(IIIB) it was 0.08 µg/mL (≈ 0.195 µM); in the series on HIV-1/Lys-138, 0.25 µg/mL (≈ 0.61 µM); in the series on HIV-1/106-Ala it was 0.17 µg/mL (≈ 0.415 µM); with HIV-1/100-Ile, 0.26 µg/mL (≈ 0.634 µM). The EC50 in the series on HIV-1/188-Leu is no less than 2 µg/mL.
In the case of `Cc1occc1C(=O)Nc1ccc(Cl)c(OCCC(C)C)c1` [Compound 37], in “in vitro”, the midpoint of cytotoxicity, the CC50, lay at 5 µg/mL (≈ 15.5 µM). Moreover, the EC50 in the series with HIV-1/103-Asn was no less than 2 µg/mL; with HIV-1/181-Cys it was 1.73 µg/mL (≈ 5.38 µM); in the series with HIV-1(IIIB), 0.16 µg/mL (≈ 0.497 µM); with HIV-1/Lys-138 it was 1.25 µg/mL (≈ 3.88 µM); in the series with HIV-1/106-Ala it was 1.3 µg/mL (≈ 4.04 µM); in the series with HIV-1/100-Ile, no less than 2 µg/mL. In addition, the EC50 with HIV-1/188-Leu is greater than 2 µg/mL.
